Test results as given in PubChem BioAssay (NCI).
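Dose response: 5 concentrations. Exposure: 48 h. Format: 96-well plates. Endpoint: linear interpolation; highest concentration if not reached. GI50 marks 50% less growth. TGI is the concentration that stops growth completely.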 Where a SMILES comes first, the peptide text is derived from it. The star is where a group is joined. Cbz = O=C(OCc1ccccc1)*; Bn = c1ccc(C*)cc1

Legend:
Assay in all cases: DTP human tumour cell line panel, 48 h
EKVX NSCLC = test system: EKVX NSCLC
SNB-75 CNS = test system: SNB-75 CNS
SN12C renal = test system: SN12C renal
NCI-H23 lung = test system: NCI-H23 lung
HCT-15 colon = test system: HCT-15 colon
UO-31 renal = test system: UO-31 renal
UACC-62 melanoma = test system: UACC-62 melanoma
SW-620 colon = test system: SW-620 colon
HOP-92 NSCLC = test system: HOP-92 NSCLC
MCF7 breast = test system: MCF7 breast

## C[n+]1c2ccccc2c(CNCC(=O)O)c2ccccc21
EKVX NSCLC
  TGI: 12.3 µM
SNB-75 CNS
  TGI: 20.9 µM
SN12C renal
  TGI: 2.81 µM
NCI-H23 lung
  TGI: 24.8 µM
HCT-15 colon
  TGI: 4.94 µM
UO-31 renal
  TGI: 22.8 µM
UACC-62 melanoma
  TGI: 3.83 µM
SW-620 colon
  TGI: 2.24 µM
HOP-92 NSCLC
  TGI: 10.4 µM

## COc1ccc2c(c1)C(OC)C1c3c(cc4c(c3-2)OCO4)CCN1C (stereo not given)
EKVX NSCLC
  TGI: 24.3 µM
SNB-75 CNS
  TGI: 15.6 µM
SN12C renal
  TGI: 12.1 µM
NCI-H23 lung
  TGI: 11.1 µM
HCT-15 colon
  TGI: 10.2 µM
UO-31 renal
  TGI: 4.59 µM
UACC-62 melanoma
  TGI: 5.08 µM
SW-620 colon
  TGI: 18.7 µM
MCF7 breast
  TGI: 8.13 µM
HOP-92 NSCLC
  TGI: 11.8 µM

## CS(=O)(=O)c1ccc2nc(-c3ccc(O)cc3)sc2c1
EKVX NSCLC
  TGI: 23.9 µM
SN12C renal
  TGI: 35.5 µM
NCI-H23 lung
  TGI: 39.6 µM
HCT-15 colon
  TGI: 31.7 µM
UO-31 renal
  TGI: 28 µM
UACC-62 melanoma
  TGI: 34.4 µM
SW-620 colon
  TGI: 38.4 µM
MCF7 breast
  TGI: 35.5 µM

## N=C(N)c1ccc(-c2ccc(-c3ccc4ccccc4c3)s2)s1
EKVX NSCLC
  GI50: 2.46 µM
  TGI: 7.44 µM
SNB-75 CNS
  GI50: 1.93 µM
  TGI: 5.3 µM
SN12C renal
  GI50: 1.87 µM
  TGI: 3.74 µM
NCI-H23 lung
  GI50: 2.96 µM
  TGI: 11.1 µM
HCT-15 colon
  GI50: 1.69 µM
  TGI: 3.29 µM
UO-31 renal
  GI50: 1.97 µM
  TGI: 4.49 µM
UACC-62 melanoma
  GI50: 2.1 µM
  TGI: 4.37 µM
SW-620 colon
  GI50: 1.91 µM
  TGI: 3.52 µM

## C=CCNC1=C2C[C@@H](C)C[C@H](OC)[C@H](O)[C@@H](C)/C=C(\C)[C@H](OC(N)=O)[C@@H](OC)/C=C\C=C(/C)C(=O)NC(=CC1=O)C2=O
EKVX NSCLC
  TGI: 31.4 µM
SNB-75 CNS
  TGI: 2.72 µM
SN12C renal
  TGI: 19.4 µM
NCI-H23 lung
  TGI: 8.3 µM
HCT-15 colon
  TGI: 24.5 µM
UO-31 renal
  TGI: 21.4 µM
UACC-62 melanoma
  TGI: 4.8 µM
SW-620 colon
  TGI: 33.9 µM
MCF7 breast
  TGI: 16 µM
HOP-92 NSCLC
  TGI: 15.9 µM

## COc1ccc(N2C(=O)/C(=C\c3ccccc3)SC2c2cc(OC)c(OC)c(OC)c2)cc1 (stereo not given)
EKVX NSCLC
  TGI: > 100 µM
SNB-75 CNS
  TGI: 75.7 µM
SN12C renal
  TGI: > 100 µM
NCI-H23 lung
  TGI: > 100 µM
HCT-15 colon
  TGI: > 100 µM
UO-31 renal
  TGI: > 100 µM
UACC-62 melanoma
  TGI: > 100 µM
MCF7 breast
  TGI: > 100 µM
HOP-92 NSCLC
  TGI: > 100 µM

## C[P+](c1ccccc1)(c1ccc(Cl)cc1)c1ccc(Cl)cc1
EKVX NSCLC
  TGI: 99.3 µM
SNB-75 CNS
  TGI: 46 µM
SN12C renal
  TGI: 51.2 µM
NCI-H23 lung
  TGI: 31.6 µM
HCT-15 colon
  TGI: > 100 µM
UO-31 renal
  TGI: > 100 µM
UACC-62 melanoma
  TGI: 28.3 µM
SW-620 colon
  TGI: > 100 µM
MCF7 breast
  TGI: > 100 µM
HOP-92 NSCLC
  TGI: 40.3 µM

## O=C(CSCC(=O)N/N=C\c1ccc(O)c(O)c1O)N/N=C\c1ccc(O)c(O)c1O
EKVX NSCLC
  TGI: 50.4 µM
SNB-75 CNS
  TGI: 21.2 µM
SN12C renal
  TGI: 59 µM
NCI-H23 lung
  TGI: 3.65 µM
HCT-15 colon
  TGI: 29.1 µM
UO-31 renal
  TGI: 34.7 µM
UACC-62 melanoma
  TGI: 41.8 µM
SW-620 colon
  TGI: 12.8 µM
MCF7 breast
  TGI: 57.4 µM
HOP-92 NSCLC
  TGI: > 100 µM

## NC(CCP(=O)(O)O)C(=O)O (stereo not given)
EKVX NSCLC
  TGI: > 100 µM
SN12C renal
  TGI: > 100 µM
NCI-H23 lung
  TGI: > 100 µM
HCT-15 colon
  TGI: > 100 µM
UO-31 renal
  TGI: > 100 µM
UACC-62 melanoma
  TGI: > 100 µM
SW-620 colon
  TGI: > 100 µM
HOP-92 NSCLC
  TGI: > 100 µM

## CCCCSCC(NC(=O)/C=C/c1c(C)[nH]c(=O)[nH]c1=O)C(=O)OC (stereo not given)
EKVX NSCLC
  TGI: 188 µM
SNB-75 CNS
  TGI: 241 µM
SN12C renal
  TGI: 269 µM
NCI-H23 lung
  TGI: 339 µM
HCT-15 colon
  TGI: > 450 µM
UO-31 renal
  TGI: 243 µM
UACC-62 melanoma
  TGI: 198 µM
SW-620 colon
  TGI: 346 µM
MCF7 breast
  TGI: 114 µM
HOP-92 NSCLC
  TGI: 189 µM

## CN(C)CCOc1cc2c(c3ccccc13)-c1ccccc1C2O (stereo not given)
EKVX NSCLC
  TGI: 28.2 µM
SNB-75 CNS
  TGI: 24.7 µM
SN12C renal
  TGI: 26.9 µM
NCI-H23 lung
  TGI: 32.2 µM
HCT-15 colon
  TGI: 25.5 µM
UO-31 renal
  TGI: 25.2 µM
UACC-62 melanoma
  TGI: 31.5 µM
SW-620 colon
  TGI: 24.8 µM
MCF7 breast
  TGI: 28.3 µM
HOP-92 NSCLC
  TGI: 19.5 µM

## C=CCOCCC(CC=C)C(=O)CC(=O)OC (stereo not given)
EKVX NSCLC
  TGI: > 100 µM
SNB-75 CNS
  TGI: > 100 µM
SN12C renal
  TGI: > 100 µM
NCI-H23 lung
  TGI: > 100 µM
HCT-15 colon
  TGI: > 100 µM
UO-31 renal
  TGI: > 100 µM
UACC-62 melanoma
  TGI: > 100 µM
SW-620 colon
  TGI: > 100 µM
HOP-92 NSCLC
  TGI: > 100 µM

## c1ccc(-c2n(Cc3ccc4ccccc4c3)c3ccccc3[n+]2Cc2ccc3ccccc3c2)cc1
SNB-75 CNS
  GI50: 0.184 µM
  TGI: 0.913 µM
SN12C renal
  GI50: 0.308 µM
  TGI: 1.1 µM
HCT-15 colon
  GI50: 1.39 µM
  TGI: 2.91 µM
UO-31 renal
  GI50: 1.36 µM
  TGI: 2.75 µM
UACC-62 melanoma
  GI50: 0.224 µM
  TGI: 0.76 µM
SW-620 colon
  GI50: 0.331 µM
  TGI: 1.33 µM
HOP-92 NSCLC
  GI50: 0.117 µM
  TGI: 0.508 µM

## CCn1c(=O)c(C(=O)O)c(Cl)c2cc3c(cc21)OCO3
EKVX NSCLC
  TGI: > 100 µM
SNB-75 CNS
  TGI: > 100 µM
SN12C renal
  TGI: > 100 µM
NCI-H23 lung
  TGI: > 100 µM
HCT-15 colon
  TGI: > 100 µM
UO-31 renal
  TGI: > 100 µM
UACC-62 melanoma
  TGI: > 100 µM
SW-620 colon
  TGI: > 100 µM
MCF7 breast
  TGI: > 100 µM
HOP-92 NSCLC
  TGI: > 100 µM

## O=C(Nc1ccc(Cl)cc1)c1cc([N+](=O)[O-])ccc1O
EKVX NSCLC
  TGI: 31.3 µM
SNB-75 CNS
  TGI: 20.2 µM
SN12C renal
  TGI: > 50.9 µM
NCI-H23 lung
  TGI: 6.66 µM
HCT-15 colon
  TGI: 28.6 µM
UO-31 renal
  TGI: 7.65 µM
UACC-62 melanoma
  TGI: 8.17 µM
SW-620 colon
  TGI: > 53.3 µM

## O=CC1C(Cl)=Nc2nc3ccccc3n2C1c1ccccc1 (stereo not given)
EKVX NSCLC
  TGI: 64.6 µM
SNB-75 CNS
  TGI: 33.7 µM
SN12C renal
  TGI: 44.8 µM
NCI-H23 lung
  TGI: 56.6 µM
HCT-15 colon
  TGI: 30.9 µM
UO-31 renal
  TGI: 48.4 µM
UACC-62 melanoma
  TGI: 50 µM
SW-620 colon
  TGI: 40.2 µM
MCF7 breast
  TGI: 42.7 µM
HOP-92 NSCLC
  TGI: 25.5 µM

## Nc1nc(Cl)c2ncn(Cc3cccc(CCl)c3)c2n1
EKVX NSCLC
  TGI: 21.2 µM
SNB-75 CNS
  TGI: 26.8 µM
SN12C renal
  TGI: 22.4 µM
NCI-H23 lung
  TGI: 4.23 µM
HCT-15 colon
  TGI: 5.58 µM
UO-31 renal
  TGI: 33.7 µM
UACC-62 melanoma
  TGI: 10.9 µM
SW-620 colon
  TGI: 11.9 µM
MCF7 breast
  TGI: > 31 µM
HOP-92 NSCLC
  TGI: 24.5 µM

## COC(=O)C(Cc1ccc(O)cc1)NC(=O)C(COCc1ccccc1)NC(=O)OCc1ccccc1 (stereo not given) (Cbz-Ser(Bn)-Tyr-OMe; configuration not given here)
EKVX NSCLC
  TGI: 43.8 µM
SNB-75 CNS
  TGI: 29.9 µM
SN12C renal
  TGI: 32.7 µM
NCI-H23 lung
  TGI: 42.8 µM
HCT-15 colon
  TGI: 33.6 µM
UO-31 renal
  TGI: 36.5 µM
UACC-62 melanoma
  TGI: 31.1 µM
SW-620 colon
  TGI: 32.9 µM
MCF7 breast
  TGI: 36.6 µM
HOP-92 NSCLC
  TGI: 60.8 µM

## C1CSCCSCSCCS1
EKVX NSCLC
  TGI: > 100 µM
SNB-75 CNS
  TGI: > 100 µM
SN12C renal
  TGI: > 100 µM
NCI-H23 lung
  TGI: > 100 µM
HCT-15 colon
  TGI: > 100 µM
UO-31 renal
  TGI: > 100 µM
UACC-62 melanoma
  TGI: > 100 µM
SW-620 colon
  TGI: > 100 µM
MCF7 breast
  TGI: > 100 µM
HOP-92 NSCLC
  TGI: > 100 µM

## O=C1c2cccc(O)c2C(=O)c2c(O)cccc21
EKVX NSCLC
  TGI: > 100 µM
SNB-75 CNS
  TGI: > 100 µM
SN12C renal
  TGI: > 100 µM
NCI-H23 lung
  TGI: > 100 µM
HCT-15 colon
  TGI: > 100 µM
UO-31 renal
  TGI: > 100 µM
UACC-62 melanoma
  TGI: 39.8 µM
SW-620 colon
  TGI: > 100 µM
HOP-92 NSCLC
  TGI: > 100 µM

## O=[N+]([O-])c1cc(N=Nc2c(O)ccc3cc(S(=O)(=O)O)ccc23)c(O)c([N+](=O)[O-])c1
EKVX NSCLC
  TGI: > 100 µM
SNB-75 CNS
  TGI: > 100 µM
SN12C renal
  TGI: > 100 µM
NCI-H23 lung
  TGI: > 100 µM
HCT-15 colon
  TGI: > 100 µM
UO-31 renal
  TGI: > 100 µM
UACC-62 melanoma
  TGI: > 100 µM
SW-620 colon
  TGI: > 100 µM
HOP-92 NSCLC
  TGI: > 100 µM

## COc1ccc(-c2oc3cc(OC(C)=O)cc(OC(C)=O)c3c(=O)c2OC)cc1
EKVX NSCLC
  TGI: 47.8 µM
HCT-15 colon
  TGI: > 100 µM
UO-31 renal
  TGI: 51.7 µM
UACC-62 melanoma
  TGI: 22.7 µM
SW-620 colon
  TGI: 39.7 µM
MCF7 breast
  TGI: 48.4 µM

## CC(=O)OCC1OC(NC(=O)N(CCCl)N=O)C(OC(C)=O)C(OC(C)=O)C1OC(C)=O (stereo not given)
EKVX NSCLC
  TGI: > 100 µM
SNB-75 CNS
  TGI: > 100 µM
SN12C renal
  TGI: > 100 µM
NCI-H23 lung
  TGI: > 100 µM
HCT-15 colon
  TGI: > 100 µM
UO-31 renal
  TGI: > 100 µM
UACC-62 melanoma
  TGI: > 100 µM
SW-620 colon
  TGI: > 100 µM
MCF7 breast
  TGI: > 100 µM
HOP-92 NSCLC
  TGI: > 100 µM
